In US20100323984A1, “COSMETIC ORAL AND/OR PARENTERAL USE OF GLUCOSAMINE OPTIONALLY IN COMBINATION WITH AT LEAST ONE POLYPHENOL COMPOUND, AND CORRESPONDING COMPOSITION” (LABORATOIRES INNEOV, priority 2006, published 2010):
Structures can show the parent of a compound that is named as a salt.

Experiments:
[1] = tested on: CD44 hyaluronic acid receptor; test: Immunohistochemical demonstration of the hyaluronic acid receptor (CD44) in human skin explants kept alive; type: cell-based; details: glucosamine 5 μM in culture medium, D4, scores 0 to 4, control skin 3.4 ± 0.7
Method: For this, a method of culturing was used which allows human skin to be kept alive under metabolic conditions close to in vivo (individuals aged between 50 and 60).
The glucosamine in aqueous solution was added to the culture medium, at the plasma concentration (5 μM), thus making it possible to simulate oral and/or parenteral administration.
Skin fragments were obtained after plastic surgery (mammary or abdominal plasties) from menopausal women (8 different donors from female individuals aged between 50 and 60). The fragments are placed in inserts which are themselves suspended above culture wells. Culture medium is added to the bottom of the wells, the medium passing by slow diffusion between the two compartments by means of a porous membrane (12 μm).
From D0 to D10, glucosamine was added to the culture medium of the skin fragments, every day. For the CD44 analysis, a series of skin samples was taken at D4. A second series was taken at D10 for assaying the collagen synthesis.
The immunodetection was carried out using the CSA kit (DAKO) and visualized in red with AEC (3-amino-9-ethylcarbazole).
Semi-quantitative scores made it possible to specify the intensity of the immunolabeling (scores 0 to 4, from negative to intense). […]

[2] = tested on: MMP3; test: MMP3 mRNA by RT-PCR, human dermal fibroblasts in a monolayer on plastic; type: cell-based; details: for MMP3 mRNA: control 1745 ± 31
Method: (§1) Human fibroblasts, harvested by growth from skin explants from a normal young donor, are routinely cultured in DMEM containing 10% of fetal bovine serum (FCS), ascorbic acid (50 μg/ml), penicillin-streptomycin (100 U/ml), referred to in the rest of the report as DMEM-FCS. They are amplified in culture by trypsinizing subconfluent cultures and dividing the dishes 1 in 3. The cultures are used up until passage 14. They are regularly tested for the absence of mycoplasma.
(§2) The glucosamine sulfate is provided in the form of (C6H14NO5)2 S04.2KCl (glucosamine.SO4 titer: 74%) brand Bioiberica, code F0379, Batch 4/0001. A stock solution at 13.6 mg/ml of distilled water is sterilized by filtration through an Acrodisc, and conserved at −20° C.
The fibroblasts are seeded in DMEM-FCS in a proportion of 2.10^5 cells/disk of 6 cm. After 18 h of attachment, the culture medium is renewed with DMEM-FCS containing:
a) glucosamine sulfate alone • [plasma concentration] 2×(n=2) • 5× (n=2) • 10× (n=2) • control (n=3)
The total amount of RNA present in the solution that will be used to carry out the specific mRNA measurements is determined by measuring the 28S ribosomal RNA. The RNA solution is aliquoted and frozen at −80° C. until the specific mRNAs are assayed by RT-PCR. The mRNA results are expressed in arbitrary units (AU) per unit of 28S. The measurements are carried out in triplicate on two or three separate cultures. • MMP3: stromelysin 1 responsible for the degradation of proteoglycans and of other extracellular matrix constituents and activator of MMP 1

[3] = tested on: Hyaluron synthase; test: Example 4 clinical study, skin biopsy mRNA by RT-PCR: hyaluron synthase; type: in vivo, human; details: oral, equivalent to 250 mg of glucosamine, 8 weeks, women aged 50 to 65, n=8; placebo 1.51 ± 0.73
Method: (§3) Restrictive randomized monocentric double-blind study versus placebo. Fifteen women, aged 50 to 65, were given, as a supplement, for 8 weeks, either a placebo (n=7) or glucosamine sulfate (n=8) equivalent to 250 mg of glucosamine (GLU).
(§4) A skin biopsy 3 mm in diameter (inner face of the arm) was taken before the beginning (T0) and at the end of the 8 weeks of supplementation (T8).
(§5) The total RNA contained in the skin samples was extracted and purified by means of an Ambion Ribo Pure Kit.
(§6) The analysis of the specific dermal markers was carried out by RT-PCR as previously described (Nusgens et al, JID, 116: 853-859, 2001). All the results are expressed in arbitrary units relative to the amount of 28S rRNA.
(§7) The effects of the supplementation (placebo or GLU) were then analyzed by comparing, for each volunteer, the individual expression of the mRNAs at T8 and at T0. A […] ratio was thus calculated. The means of each ratio of the two groups were compared using a Student's test for paired samples.

[4] = tested on: Vimentin; test: Example 4 clinical study, skin biopsy mRNA by RT-PCR: vimentin; type: in vivo, human; details: oral, equivalent to 250 mg of glucosamine, 8 weeks, women aged 50 to 65, n=8; placebo 1.27 ± 0.33
Method: as §3, §4, §5, §6, §7

[5] = tested on: fibroblasts; test: Retracting collagen gel (contractile properties of fibroblasts); type: cell-based, human
Method: Human fibroblasts, harvested by growth from skin explants from a normal young donor, are routinely cultured in DMEM containing 10% of fetal bovine serum (FCS), ascorbic acid (50 μg/ml), penicillin-streptomycin (100 U/ml), referred to in the rest of the report as DMEM-FCS. They are amplified in culture by trypsinizing subconfluent cultures and dividing the dishes 1 in 3. The cultures are used up until passage 14. They are regularly tested for the absence of mycoplasma. A sterile solution of purified native collagen is mixed with a suspension of fibroblasts, DMEM-FCS medium and the test products in bacteriological dishes. The mixture is brought to 37° C., this resulting in polymerization of the collagen and the formation of a three-dimensional collagen gel trapping the fibroblasts and floating in the culture medium. The cells attached to the collagen fibers and, under the contractile activity of the cytoskeleton of the fibroblasts, the gel is gradually retracted. This gel is commonly referred to as “Retracting Collagen Gel” or RCG. […]

[6] = tested on: Biglycan; test: Example 4 clinical study, skin biopsy mRNA by RT-PCR: biglycan; type: in vivo, human; details: oral, equivalent to 250 mg of glucosamine, 8 weeks, women aged 50 to 65, n=8; placebo 1.10 ± 0.18
Method: as §3, §4, §5, §6, §7

[7] = tested on: Fibromodulin; test: Example 4 clinical study, skin biopsy mRNA by RT-PCR: fibromodulin; type: in vivo, human; details: oral, equivalent to 250 mg of glucosamine, 8 weeks, women aged 50 to 65, n=8; placebo 1.12 ± 0.16
Method: as §3, §4, §5, §6, §7

[8] = tested on: Human fibroblasts; test: Cytotoxicity on fibroblasts (number of cells by DNA fluorimetry); type: cell-based; details: for DNA (number of cells): 48 h, control 2.37 ± 0.33
Method: as §1, §2
The fibroblasts are seeded into 24-well multiwells at 25 or 50×10^3 cells/well in DMEM-FCS. After 6 h of attachment, 20 μl of gradual dilutions of the active agents to be tested are added to the cultures. After 24 h of contact, the medium and the active agents are renewed. After 48 h of culture, the medium is removed, and the cell layers are rinsed twice with physiological saline. The number of cells is determined by measuring DNA by the fluorimetric technique using the bisbenzimide reagent in a “Gemini” fluorimeter. The cultures are prepared in triplicate and the measurements are carried out on each culture in duplicate. The control cultures receive the solvent alone.
The toxicity of glucosamine sulfate is tested at 0.5, 1, 5, 10, 20 and 40× the plasma concentration, i.e. 3.4, 6.8, 34, 68, 136 and 272 μg/ml of culture medium.

[9] = tested on: Decorin; test: Example 4 clinical study, skin biopsy mRNA by RT-PCR: decorin; type: in vivo, human; details: oral, equivalent to 250 mg of glucosamine, 8 weeks, women aged 50 to 65, n=8; placebo 1.11 ± 0.22
Method: as §3, §4, §5, §6, §7

Structure (SMILES): N[C@@H](C=O)[C@@H](O)[C@H](O)[C@H](O)CO [glucosamine sulfate]
- CD44 labeling Topography score (mean semi-quantitative score) [1]: 3.7 ± 0.5
- MMP3 mRNA ([2]; 2x plasma concentration): 1261 ± 120 UA/28S
- level of MMP3 mRNA (in words) ([2]; 2x, 5x, 10x plasma concentration, p<0.005): significant reduction
- MMP3 mRNA ([2]; 5x plasma concentration): 1162 ± 22 UA/28S
- MMP3 mRNA ([2]; 10x plasma concentration): 1060 ± 375 UA/28S
- Hyaluron synthase mRNA (T8/T0) [3]: significantly increases
- Vimentin mRNA (T8/T0) [4]: significantly increases
- reduction in the diameter of the collagen gel (retraction) ([5]; 2×, 5× and 10× the plasma concentration, 20 000 fibroblasts, 46 h, control 19 mm): 22 mm
- reduction in diameter of the collagen gel ([5]; plasma concentration, 25 000 fibroblasts, 18 hours, controls 21 mm): 23 mm
- Biglycan mRNA (T8/T0) [6]: significantly increases
- Fibromodulin mRNA (T8/T0) [7]: significantly increases
- number of cells (rate of proliferation of the fibroblasts) ([8]; 34 μg/ml, p=0.04): increase in the number of cells
- DNA (number of cells) ([8]; 0.5x plasma concentration, 3.4 μg/ml): 2.81 ± 0.41 µg/mL
- DNA (number of cells) ([8]; 1x plasma concentration, 6.8 μg/ml): 2.56 ± 0.37 µg/mL
- DNA (number of cells) ([8]; 5x plasma concentration, 34 μg/ml): 2.89 ± 0.23 µg/mL
- DNA (number of cells) ([8]; 10x plasma concentration, 68 μg/ml): 2.61 ± 0.26 µg/mL
- DNA (number of cells) ([8]; 20x plasma concentration, 136 μg/ml): 2.52 ± 0.18 µg/mL
- DNA (number of cells) ([8]; 40x plasma concentration, 272 μg/ml): 2.50 ± 0.32 µg/mL
- cytotoxic effect ([8]; even at concentrations representing 40× the plasma concentration): No cytotoxic effect
- Decorin mRNA (T8/T0) [9]: significantly increases
